Here are results for 1 molecule from article PMC6350621, “Small-molecules that covalently react with a human prolyl hydroxylase – towards activity modulation and substrate capture” (Chemical Communications (Cambridge, England), 2018).

Experiment [1] addresses T1, KDM4A (Homo sapiens, UniProt O75164).
T1 sequence (O75164 1-1064): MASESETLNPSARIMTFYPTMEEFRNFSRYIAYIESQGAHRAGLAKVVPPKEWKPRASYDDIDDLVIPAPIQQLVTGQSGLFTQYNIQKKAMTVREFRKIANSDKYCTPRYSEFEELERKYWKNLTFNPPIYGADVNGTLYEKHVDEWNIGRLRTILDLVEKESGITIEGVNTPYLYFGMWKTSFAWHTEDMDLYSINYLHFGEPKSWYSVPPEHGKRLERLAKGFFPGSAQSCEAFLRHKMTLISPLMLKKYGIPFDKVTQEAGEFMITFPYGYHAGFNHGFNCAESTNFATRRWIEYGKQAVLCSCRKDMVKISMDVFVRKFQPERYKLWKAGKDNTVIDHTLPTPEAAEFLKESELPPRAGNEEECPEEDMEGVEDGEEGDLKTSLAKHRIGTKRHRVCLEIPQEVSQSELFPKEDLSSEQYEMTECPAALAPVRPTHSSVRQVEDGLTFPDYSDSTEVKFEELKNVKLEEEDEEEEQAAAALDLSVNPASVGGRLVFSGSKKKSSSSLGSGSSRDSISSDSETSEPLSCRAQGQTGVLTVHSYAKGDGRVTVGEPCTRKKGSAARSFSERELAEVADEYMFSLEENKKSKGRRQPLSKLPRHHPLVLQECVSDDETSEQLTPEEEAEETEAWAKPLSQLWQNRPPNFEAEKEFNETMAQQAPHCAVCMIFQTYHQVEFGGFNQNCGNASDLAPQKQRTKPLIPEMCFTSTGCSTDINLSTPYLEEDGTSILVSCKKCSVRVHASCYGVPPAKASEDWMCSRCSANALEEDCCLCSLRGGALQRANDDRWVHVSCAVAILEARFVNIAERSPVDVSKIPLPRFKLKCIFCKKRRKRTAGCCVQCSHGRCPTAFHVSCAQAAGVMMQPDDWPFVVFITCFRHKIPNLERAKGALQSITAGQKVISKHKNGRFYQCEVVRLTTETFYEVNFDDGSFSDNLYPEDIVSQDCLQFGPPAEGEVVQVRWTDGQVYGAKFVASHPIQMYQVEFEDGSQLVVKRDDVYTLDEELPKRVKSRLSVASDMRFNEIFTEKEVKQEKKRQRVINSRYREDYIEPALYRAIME
As to the kind of experiment: Denaturing MS covalent adduct formation with KDM4A. In kind it is binding. Conditions: enzyme 20 μM, Fe(II) 30 μM, compound 30 μM, 37 °C, 4 h. The source says:
Ligands that covalently modify proteins are used for activity-based profiling by functionalisation with an appropriate handle.[20] […] This method for incorporation of a photoreactive group near the active site of a protein to enable substrate capture is complementary to ‘photoreactive site directed mutagenesis’.[21],[22] Azide 7 was designed for use as a tag to allow ‘click’ conjugation with a handle (e.g. biotin) for activity-based profiling, or as a photoreactive aryl azide for substrate capture. […] There is scope for optimisaiton and broader application of the approach described here. […] Work toward the application of 7 and derivatives in protein profiling and substrate capture in cells is ongoing.
HeLa cells were treated with the […]

The target in experiment [2] is T2, PHD2_181–418 (Homo sapiens, UniProt Q9GZT9).
T2 construct: Both the 418 (PHD2_181–418); His6 (N, cleaved yes); made in house; host or cells: bacterial culture (2x TY, kanamycin, IPTG)
T2 sequence (Q9GZT9 181-418): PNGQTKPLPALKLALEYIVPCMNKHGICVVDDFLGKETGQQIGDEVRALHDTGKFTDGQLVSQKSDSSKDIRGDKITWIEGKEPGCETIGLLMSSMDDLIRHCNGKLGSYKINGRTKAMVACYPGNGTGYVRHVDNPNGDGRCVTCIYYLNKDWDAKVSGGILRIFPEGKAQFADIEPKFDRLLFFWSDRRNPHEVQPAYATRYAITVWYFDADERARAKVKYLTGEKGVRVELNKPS
As to the kind of experiment: Non-denaturing ESI-MS crosslinking, 418 truncate. To be noted: equimolar FeSO4 and compound, 3 h, 37 °C, 200 V. In kind it is binding. Here is the method:
The site of crosslinking of 3 was investigated using protein variants. First, 3 was incubated with C-terminal truncated PHD2 (PHD2_181–402) and a loop deletion variant (deletion of residues 238–250, PHD2Δ). […] Thus, 3 was incubated with PHD2 constructs truncated at residues 402, 410, 414 and 418. […] Crosslinking experiments with PHD2 R411M implied that R411 is not directly involved in crosslinking (Fig. S11, ESI ^†).
Fig. S8 Temperature dependence of the rate of crosslinking of 3 with PHD2. PHD2 (20 µM) was incubated with equimolar Fe(II) and 3 in buffer (50 mM Tris, 150 mM NaCl, pH 7.5) at 4, 20 and 37 °C. The ratio of crosslinking after 1, 2, and 4 h was determined by ESI-MS under denaturing conditions (n = 2), error bars represent 1 standard deviation.
Fig. S9 Ratio of crosslinked PHD2.3 before evaluation of catalytic activity. Labelled peaks correspond to: (A): PHD2, […]
Fig. S10 Non-denaturing ESI-MS analysis of (a) PHD2 and its C-terminal truncations (b) PHD2181-418; (c) PHD2181-414;
(d) PHD2181-410; (e) PHD2181-402 in the presence of equimolar amounts of FeSO4 and 3 after 3 hours incubation at 37 °C in ammonium acetate (15 mM, pH 7.5) at a sample cone voltage of 200V. Peaks present: (A): PHD2.Fe; (B): PHD2181-

Take `C=CC(=O)Nc1cccc(C(=O)NCC(=O)O)c1O` [compound 3]: in experiment [1], the “covalent reaction with KDM4A” value is given as “did not accrue evidence”. Moreover, in experiment [2], the “covalent modification of 418 truncate” value was “covalently modified”.
